The values that follow come from ChEMBL document CHEMBL1201862, “PubChem BioAssay data set” (2004).

One test deals with Paired box protein Pax-8 (Homo sapiens, UniProt Q06710). The test can be described thus: PAX8 transcriptional activity inhibition in RMG-I – RMG-I cells, luciferase, cherry-pick, dose response (AID 687027).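 Note: luciferase reporter driven by Pax8 target thyroperoxidase promoter measured by SteadyGlo luminescence.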 Type of test: functional, cell-based.
The next test concerns the target Protein S100-A4 (Homo sapiens, UniProt P26447). Briefly: human S100A4 peptide interaction inhibition curves – biochemical, fluorescence polarization, cherry-picked hits, dose response (AID 687001). It counts as functional. A general note: In fluorescence polarisation assays a small probe gives low polarisation when free and higher when bound to something large.
The target of a further test is Keap1/Nrf2 (Homo sapiens, UniProt Q14145). Briefly: disruptors of Keap1 binding to Nrf2 peptide – biochemical, fluorescence polarization, cherry-picked samples, dose response (AID 588683).
The target in test [1] is Heat shock protein HSP 90-alpha (Homo sapiens, UniProt P07900). Type of test: functional, organism-based.
For test [2], the target named is Photoreceptor-specific nuclear receptor (Homo sapiens, UniProt Q9Y5X4). Type of test: functional, cell-based.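 Note: CHO-S cells with Gal4-NCOR and VP16-NR2E3 two-hybrid luciferase reporter.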
Test [3] has as its target T1, Alkaline phosphatase, tissue-nonspecific isozyme (Homo sapiens, UniProt P05186).
T1 sequence (P05186 whole entry): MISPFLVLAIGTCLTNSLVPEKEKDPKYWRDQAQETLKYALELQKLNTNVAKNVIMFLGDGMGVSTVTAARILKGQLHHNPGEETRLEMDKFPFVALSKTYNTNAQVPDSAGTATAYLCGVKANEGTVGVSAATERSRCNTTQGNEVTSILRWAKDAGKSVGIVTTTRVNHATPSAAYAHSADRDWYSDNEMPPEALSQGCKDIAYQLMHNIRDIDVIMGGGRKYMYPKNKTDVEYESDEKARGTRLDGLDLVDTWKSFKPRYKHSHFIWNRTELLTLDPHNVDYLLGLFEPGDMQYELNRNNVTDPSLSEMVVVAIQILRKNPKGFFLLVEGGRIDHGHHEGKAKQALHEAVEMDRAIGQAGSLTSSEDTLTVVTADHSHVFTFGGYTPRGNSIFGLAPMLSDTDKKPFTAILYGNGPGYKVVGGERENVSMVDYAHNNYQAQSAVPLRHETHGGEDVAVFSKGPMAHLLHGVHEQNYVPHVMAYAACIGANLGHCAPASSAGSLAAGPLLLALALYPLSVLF
The test can be described thus: activation of tissue-nonspecific alkaline phosphatase – biochemical, TNAP isozyme, human IAP uHTS hits, selectivity assay for human IAP activator project, dose response (AID 488886).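 Note: potency of compounds raising TNAP activity as a selectivity check on IAP activators.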 Type of test: functional.

In test [4] the target is T2, Intestinal-type alkaline phosphatase (Homo sapiens, UniProt P09923). Briefly: activation of human intestinal alkaline phosphatase – biochemical, luminescent, uHTS hits, set 2, dose response (AID 488817).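 Note: potency of activators that raise enzyme activity.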 It counts as functional.
Test [5] addresses T2, Intestinal-type alkaline phosphatase. Briefly: human intestinal alkaline phosphatase activators, dose response, biochemical, luminescence, uHTS hits (AID 463120). Type of test: functional.
A short description of test [6]: Luminescence Cell-Based Dose Retest to Confirm Inhibitors of Cancer Stem Cells. [Related pubchem assays (depositor defined):AID2717, AID2721]. Type of test: functional. As to conditions: Homo sapiens.
For test [7], the target named is Intestinal-type alkaline phosphatase (Mus musculus, UniProt P24822). Briefly: PubChem AID 488874. Type of test: functional.
The target in another test is T3, Hexokinase-1 (Homo sapiens, UniProt P19367).
T3 sequence (P19367 whole entry): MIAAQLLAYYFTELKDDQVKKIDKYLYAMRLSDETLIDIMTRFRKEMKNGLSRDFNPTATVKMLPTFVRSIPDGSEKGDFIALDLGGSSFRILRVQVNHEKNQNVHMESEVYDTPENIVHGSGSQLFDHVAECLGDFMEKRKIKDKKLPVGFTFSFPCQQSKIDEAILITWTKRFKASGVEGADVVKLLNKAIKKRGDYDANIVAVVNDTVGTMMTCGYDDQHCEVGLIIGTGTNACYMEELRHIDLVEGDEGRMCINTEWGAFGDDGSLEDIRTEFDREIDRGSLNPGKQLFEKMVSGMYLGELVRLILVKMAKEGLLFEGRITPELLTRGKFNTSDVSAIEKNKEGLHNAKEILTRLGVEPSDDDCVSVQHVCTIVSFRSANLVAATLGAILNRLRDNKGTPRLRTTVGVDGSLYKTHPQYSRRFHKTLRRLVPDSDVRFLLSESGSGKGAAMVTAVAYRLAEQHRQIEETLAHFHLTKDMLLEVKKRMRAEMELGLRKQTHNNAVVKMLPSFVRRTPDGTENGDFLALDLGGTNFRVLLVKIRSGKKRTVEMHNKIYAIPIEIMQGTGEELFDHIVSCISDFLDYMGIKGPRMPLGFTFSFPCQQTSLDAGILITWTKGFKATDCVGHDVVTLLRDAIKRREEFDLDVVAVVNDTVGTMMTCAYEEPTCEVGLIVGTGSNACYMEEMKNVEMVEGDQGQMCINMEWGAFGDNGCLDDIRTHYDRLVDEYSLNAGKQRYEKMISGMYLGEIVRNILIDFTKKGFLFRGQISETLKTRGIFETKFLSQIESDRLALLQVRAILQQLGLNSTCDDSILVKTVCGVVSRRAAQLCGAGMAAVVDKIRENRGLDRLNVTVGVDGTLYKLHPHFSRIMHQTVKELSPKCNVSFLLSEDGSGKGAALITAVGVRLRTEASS
Briefly: HK1 enzyme activation by HKDC1 hits – biochemical, selectivity assay for HKDC1 activator project, dose response (AID 504762). Type of test: functional.

The next test has as its target T4, Hexokinase HKDC1 (Homo sapiens, UniProt Q2TB90).
T4 sequence (Q2TB90 whole entry): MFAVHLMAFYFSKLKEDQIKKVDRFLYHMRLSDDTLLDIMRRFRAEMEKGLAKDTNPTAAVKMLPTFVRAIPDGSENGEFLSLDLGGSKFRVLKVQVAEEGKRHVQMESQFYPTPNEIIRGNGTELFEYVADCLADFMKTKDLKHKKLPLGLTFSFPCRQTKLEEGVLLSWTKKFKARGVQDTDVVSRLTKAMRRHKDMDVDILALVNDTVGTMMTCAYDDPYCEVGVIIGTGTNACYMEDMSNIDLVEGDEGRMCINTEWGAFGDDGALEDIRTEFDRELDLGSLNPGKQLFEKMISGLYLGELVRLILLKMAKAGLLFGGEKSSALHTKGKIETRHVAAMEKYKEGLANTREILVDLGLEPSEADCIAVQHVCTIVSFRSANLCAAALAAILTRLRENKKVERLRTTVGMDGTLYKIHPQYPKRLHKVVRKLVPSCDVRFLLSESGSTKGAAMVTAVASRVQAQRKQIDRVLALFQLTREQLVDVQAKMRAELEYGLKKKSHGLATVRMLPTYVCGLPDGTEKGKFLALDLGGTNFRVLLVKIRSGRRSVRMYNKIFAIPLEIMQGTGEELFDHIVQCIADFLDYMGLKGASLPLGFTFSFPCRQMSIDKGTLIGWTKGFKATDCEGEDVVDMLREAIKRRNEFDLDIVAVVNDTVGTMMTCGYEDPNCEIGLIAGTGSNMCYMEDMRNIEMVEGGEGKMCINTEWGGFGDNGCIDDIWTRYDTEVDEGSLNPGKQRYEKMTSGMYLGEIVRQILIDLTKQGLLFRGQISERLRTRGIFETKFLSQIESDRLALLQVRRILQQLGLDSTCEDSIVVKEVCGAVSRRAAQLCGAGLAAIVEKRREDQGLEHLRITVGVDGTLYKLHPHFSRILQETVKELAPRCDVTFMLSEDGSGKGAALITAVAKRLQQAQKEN
The test can be described thus: activation of HKDC1 glucose phosphorylation – biochemical, W721R variant, dose response (AID 504730). Type of test: functional.

Molecules are shown by their SMILES. Active and inactive are the calls of the source.

By AC50 is commonly meant the concentration at which the activity in the assay is half-maximal. What is called IC50 is the concentration that inhibits the measured activity by half. One may read the EC50 as the concentration at which the effect is half-maximal.

T2 sequence (P09923 whole entry): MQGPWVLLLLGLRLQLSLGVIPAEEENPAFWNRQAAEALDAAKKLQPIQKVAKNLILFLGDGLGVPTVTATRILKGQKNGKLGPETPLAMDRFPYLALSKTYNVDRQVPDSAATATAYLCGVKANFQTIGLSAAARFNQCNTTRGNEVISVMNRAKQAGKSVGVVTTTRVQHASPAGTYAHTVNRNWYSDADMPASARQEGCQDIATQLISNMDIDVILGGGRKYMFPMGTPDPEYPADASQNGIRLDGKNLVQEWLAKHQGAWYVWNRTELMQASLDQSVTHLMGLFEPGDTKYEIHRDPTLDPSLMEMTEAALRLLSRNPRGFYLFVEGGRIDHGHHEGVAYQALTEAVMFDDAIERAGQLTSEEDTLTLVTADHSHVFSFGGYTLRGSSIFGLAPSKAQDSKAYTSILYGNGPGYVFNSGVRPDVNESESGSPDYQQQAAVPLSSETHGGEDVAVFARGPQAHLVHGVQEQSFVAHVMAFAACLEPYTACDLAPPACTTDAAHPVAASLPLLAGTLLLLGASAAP
Sequence of Protein S100-A4 (P26447 whole entry): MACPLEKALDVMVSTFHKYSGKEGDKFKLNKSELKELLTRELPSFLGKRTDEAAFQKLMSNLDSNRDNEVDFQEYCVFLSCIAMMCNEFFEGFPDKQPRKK
Sequence of Keap1/Nrf2 (Q16236 whole entry): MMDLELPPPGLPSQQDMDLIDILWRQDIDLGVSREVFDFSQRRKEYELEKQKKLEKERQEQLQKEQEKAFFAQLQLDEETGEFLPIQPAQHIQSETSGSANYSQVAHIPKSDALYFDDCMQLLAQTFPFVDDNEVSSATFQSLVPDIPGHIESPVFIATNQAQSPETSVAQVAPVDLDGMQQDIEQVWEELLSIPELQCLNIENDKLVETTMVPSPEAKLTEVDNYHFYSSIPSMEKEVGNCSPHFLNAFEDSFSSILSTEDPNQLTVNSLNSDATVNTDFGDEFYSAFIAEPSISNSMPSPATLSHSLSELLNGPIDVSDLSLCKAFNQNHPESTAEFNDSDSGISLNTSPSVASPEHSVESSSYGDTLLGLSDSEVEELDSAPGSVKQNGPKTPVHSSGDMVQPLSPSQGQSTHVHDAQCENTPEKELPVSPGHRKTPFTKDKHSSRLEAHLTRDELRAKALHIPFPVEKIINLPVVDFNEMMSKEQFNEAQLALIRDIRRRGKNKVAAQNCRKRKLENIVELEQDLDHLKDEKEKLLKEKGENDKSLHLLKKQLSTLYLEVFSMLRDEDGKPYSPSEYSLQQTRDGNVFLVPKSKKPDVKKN
Sequence of Keap1/Nrf2 (Q14145 whole entry): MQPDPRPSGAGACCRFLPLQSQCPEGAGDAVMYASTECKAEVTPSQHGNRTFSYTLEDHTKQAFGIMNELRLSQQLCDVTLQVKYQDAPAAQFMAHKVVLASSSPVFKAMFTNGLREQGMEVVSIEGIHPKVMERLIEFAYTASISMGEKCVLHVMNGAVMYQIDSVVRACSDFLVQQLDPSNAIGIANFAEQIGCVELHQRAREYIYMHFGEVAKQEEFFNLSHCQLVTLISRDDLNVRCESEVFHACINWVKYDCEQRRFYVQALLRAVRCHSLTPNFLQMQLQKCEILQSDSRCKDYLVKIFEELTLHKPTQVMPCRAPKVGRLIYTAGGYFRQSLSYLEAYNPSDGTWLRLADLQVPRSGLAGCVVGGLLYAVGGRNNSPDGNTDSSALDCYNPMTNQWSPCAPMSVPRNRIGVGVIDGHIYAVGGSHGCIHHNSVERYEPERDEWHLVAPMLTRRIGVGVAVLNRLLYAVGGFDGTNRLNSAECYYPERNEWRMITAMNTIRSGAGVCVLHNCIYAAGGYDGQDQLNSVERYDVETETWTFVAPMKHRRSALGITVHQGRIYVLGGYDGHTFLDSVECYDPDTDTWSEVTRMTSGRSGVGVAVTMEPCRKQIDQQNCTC
Sequence of Paired box protein Pax-8 (Q06710 whole entry): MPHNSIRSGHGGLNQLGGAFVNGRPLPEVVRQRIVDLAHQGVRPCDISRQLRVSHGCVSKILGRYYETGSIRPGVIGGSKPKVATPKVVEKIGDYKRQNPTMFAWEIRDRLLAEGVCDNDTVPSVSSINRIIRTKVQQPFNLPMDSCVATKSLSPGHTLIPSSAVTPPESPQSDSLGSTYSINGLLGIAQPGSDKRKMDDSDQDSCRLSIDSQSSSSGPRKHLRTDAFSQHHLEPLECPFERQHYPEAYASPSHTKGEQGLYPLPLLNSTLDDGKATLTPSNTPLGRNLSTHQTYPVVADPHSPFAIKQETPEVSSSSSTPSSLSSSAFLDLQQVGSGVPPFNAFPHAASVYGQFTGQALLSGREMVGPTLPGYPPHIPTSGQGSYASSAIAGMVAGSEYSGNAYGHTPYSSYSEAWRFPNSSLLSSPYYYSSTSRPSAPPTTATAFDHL
Sequence of Intestinal-type alkaline phosphatase (Mus musculus, UniProt P24822) (P24822 whole entry): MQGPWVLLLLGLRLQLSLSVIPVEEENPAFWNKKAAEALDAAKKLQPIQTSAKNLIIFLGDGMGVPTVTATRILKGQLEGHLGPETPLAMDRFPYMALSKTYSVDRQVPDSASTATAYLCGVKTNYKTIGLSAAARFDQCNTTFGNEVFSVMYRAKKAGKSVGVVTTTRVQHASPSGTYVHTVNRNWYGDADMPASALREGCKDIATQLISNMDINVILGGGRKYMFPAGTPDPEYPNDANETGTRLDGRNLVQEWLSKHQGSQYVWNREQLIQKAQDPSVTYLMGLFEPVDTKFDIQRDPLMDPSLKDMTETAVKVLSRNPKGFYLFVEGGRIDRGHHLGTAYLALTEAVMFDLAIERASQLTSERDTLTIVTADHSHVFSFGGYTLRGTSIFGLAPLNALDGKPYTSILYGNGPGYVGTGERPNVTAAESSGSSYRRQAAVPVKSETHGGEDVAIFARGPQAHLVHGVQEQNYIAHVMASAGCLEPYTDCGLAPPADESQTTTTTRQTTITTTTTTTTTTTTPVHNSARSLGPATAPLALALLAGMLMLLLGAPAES
Sequence of Photoreceptor-specific nuclear receptor (Q9Y5X4 whole entry, the tested form may be a part): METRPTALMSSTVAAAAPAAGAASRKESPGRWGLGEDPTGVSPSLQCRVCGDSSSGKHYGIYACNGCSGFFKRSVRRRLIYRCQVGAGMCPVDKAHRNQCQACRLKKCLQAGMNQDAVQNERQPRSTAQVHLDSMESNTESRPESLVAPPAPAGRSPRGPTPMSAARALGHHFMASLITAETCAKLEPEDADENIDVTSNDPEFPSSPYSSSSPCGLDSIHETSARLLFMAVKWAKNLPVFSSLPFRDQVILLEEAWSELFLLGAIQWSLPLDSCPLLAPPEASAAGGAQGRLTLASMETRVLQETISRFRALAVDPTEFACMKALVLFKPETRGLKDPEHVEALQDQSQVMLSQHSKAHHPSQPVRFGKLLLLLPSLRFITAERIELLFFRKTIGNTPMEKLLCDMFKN

On to `COc1cccc2c1C(=O)c1c(O)c3c(c(O)c1C2=O)CC(O)(C(C)=O)CC3OC1CC(N(C)C)C(O)C(C)O1` (configuration not stated), for which the AC50 at Paired box protein Pax-8 is 1.52 µM (active); on Protein S100-A4, 0.304 µM (active); at Keap1/Nrf2, > 52 µM (inactive); in [1], 0.807 µM (active). Besides, the IC50 in test [2] was 3.82 µM (active).
`O=C(Nc1ccon1)c1nc[nH]c1C(=O)NCc1ccccc1`: the EC50 in [3] was 16.4 µM (active); in test [4] it was 13.9 µM (active); in test [5], 14.2 µM (active). For the same molecule, the AC50 in [6] is 0.76 µM (active). In test [7], the half-inhibitory concentration (IC50) was 38.8 µM (active).
Regarding `Cc1ccc(/N=C2\C(=S)N(c3ccc(C)cc3)C(=N)N2/N=C/c2ccc(Cl)cc2)cc1`, the EC50 on Hexokinase-1 and at Hexokinase HKDC1 was > 80 µM (inactive) throughout.
